Series [1] concerns the target dopamine transporter (DAT) (Rattus norvegicus, UniProt P23977). The experiment in a line: Dopamine reuptake ([^3H]dopamine uptake) inhibition in rat brain synaptosomes. The note with it: for Emax: read-out: DA Uptake Emax (% I ± SD).
The mark [2] stands for this setting: DA Uptake EC50 (nM ± SD), rat caudate synaptosomes, 5 nM [^3H]dopamine, 15 min, 25° C., three experiments pooled.

Read-outs that look alike come from different tables or passages of the source.

dopamine transporter (DAT), sequence (P23977 whole entry): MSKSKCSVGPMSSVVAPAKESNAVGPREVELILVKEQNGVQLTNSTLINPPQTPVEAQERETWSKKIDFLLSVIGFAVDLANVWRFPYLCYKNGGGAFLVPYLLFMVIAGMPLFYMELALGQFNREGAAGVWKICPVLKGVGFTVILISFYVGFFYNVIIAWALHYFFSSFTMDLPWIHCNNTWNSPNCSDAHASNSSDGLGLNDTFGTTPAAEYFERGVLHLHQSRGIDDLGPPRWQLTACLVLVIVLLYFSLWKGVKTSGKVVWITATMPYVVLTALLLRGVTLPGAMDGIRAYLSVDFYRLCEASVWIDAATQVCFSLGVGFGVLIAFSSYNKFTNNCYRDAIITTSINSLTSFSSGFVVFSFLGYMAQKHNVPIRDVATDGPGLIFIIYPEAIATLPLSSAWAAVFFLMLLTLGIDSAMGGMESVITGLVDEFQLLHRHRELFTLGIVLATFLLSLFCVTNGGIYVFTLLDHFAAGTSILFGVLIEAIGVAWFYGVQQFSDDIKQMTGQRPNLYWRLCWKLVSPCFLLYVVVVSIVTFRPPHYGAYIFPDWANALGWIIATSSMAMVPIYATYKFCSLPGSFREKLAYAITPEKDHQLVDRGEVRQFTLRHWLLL

For orientation: IC50 means the concentration that inhibits the measured activity by half. Low values mean inhibition by little substance, high ones a need for much substance. By Emax is commonly meant the greatest response seen or fitted, relative to the assay's reference. As a reminder, the melting point is the temperature, or range, at which the solid turns liquid. As to `c1ccc(C(CNc2nc(-c3ccc4nccn4c3)nc3ccccc23)N2CCCC2)cc1` (stereo not drawn) [compound 121, 2-(Imidazo[1,2-A]Pyridin-6-yl)-N-(2-Phenyl-2-(Pyrrolidin-1-yl)Ethyl)Quinazolin-4-Amine], the melting point is 205 to 207 °C. The compound also showed an IC50 in series [1] (setting [2]) of 170 ± 50 nM. Besides, the Emax in series [1] turned out to be 83 ± 5%.
In turn, `c1ccc(C(CNc2nc(-c3cnc4[nH]ccc4c3)nc3ccccc23)c2ccccc2)cc1` [compound 123, N-(2,2-Diphenylethyl)-2-(1H-Pyrrolo[2,3-B]Pyridin-5-yl)Quinazolin-4-Amine] had a melting point of 193 °C. In addition, in series [1] (setting [2]), the IC50 was 31 ± 5 nM. For the same compound, in series [1], the Emax came to 69 ± 2%.
For the compound `Cl.c1ccc(C(CNc2nc(-c3ccc4nccn4c3)nc3cc(OCCCN4CCOCC4)ccc23)c2ccccc2)cc1` [compound 125, N-(2,2-Diphenylethyl)-2-(Imidazo[1,2-A]Pyridin-6-yl)-7-(3-Morpholinopropoxy)Quinazolin-4-Amine Hydrochloride], the melting point is 232 °C. In series [1], the half-maximal inhibitory concentration (IC50) is 75 ± 25 nM and the Emax turned out to be 52 ± 3%.
Compound `c1ccc(C(CNc2nc(-c3ccc4[nH]ccc4c3)nc3ccccc23)c2cccnc2)cc1` (stereo not drawn) [compound 130, 2-(1H-Indol-5-yl)-N-(2-Phenyl-2-(Pyridin-3-yl)Ethyl)Quinazolin-4-Amine] had a melting point of 109 to 111 °C. Also, the IC50 in series [1] (setting [2]) was determined as 40 ± 5 nM. Moreover, the maximal response (Emax) in series [1] was determined as 74 ± 2%.
The matching figures for `c1ccc(C(CNc2nc(-c3ccc4ncnn4c3)nc3ccccc23)c2cccnc2)cc1` (stereo not drawn) [compound 132, 2-([1,2,4]Triazolo[1,5-a]pyridin-6-yl)-N-(2-phenyl-2-(pyridin-3-yl)ethyl)quinazolin-4-amine]: > 250 °C, 103 ± 26 nM and 55 ± 3%.
The matching figures for `c1ccc(C(CNc2nc(-c3ccc4cnccc4c3)nc3ccccc23)c2ccccc2)cc1` [compound 133, N-(2,2-Diphenylethyl)-2-(Isoquinolin-6-yl)Quinazolin-4-Amine]: 242 to 244 °C, 194 ± 30 nM and 70 ± 2%.
In turn, `c1ccc(C2CN(c3nc(-c4ccc5nccn5c4)nc4ccccc34)Cc3ccccc32)cc1` (stereo not drawn) [compound 135, 2-(Imidazo[1,2-A]Pyridin-6-yl)-4-(4-Phenyl-3,4-Dihydroisoquinolin-2(1H)-yl)Quinazoline] displayed a melting point of 107 to 109 °C. For the same compound, in series [1] (setting [2]), it took 1490 ± 342 nM to reach half-maximal inhibition (IC50). Also, in series [1], the Emax turned out to be 70 ± 4%.
Compound `c1ccc(CC(CNc2nc(-c3ccc4nccn4c3)nc3ccccc23)c2ccccc2)cc1` (stereo not drawn) [compound 136, N-(2,3-Diphenylpropyl)-2-(imidazo[1,2-a]pyridin-6-yl)quinazolin-4-amine] registered a melting point of 208 to 210 °C. In series [1] (setting [2]), this compound came in with an IC50 of 34 ± 4 nM. Moreover, in series [1], the Emax worked out at 78 ± 2%.
On to `Cn1ccc2cc(-c3nc(NCC(c4ccccc4)c4cccnc4)c4ccccc4n3)ccc21` (stereo not drawn) [compound 137, 2-(1-Methyl-1H-Indol-5-yl)-N-(2-Phenyl-2-(Pyridin-3-yl)Ethyl)Quinazolin-4-Amine], for which the melting point was 91 to 93 °C. This compound returned a 50% inhibitory concentration (IC50) in series [1] (setting [2]) of 44 ± 8 nM. In addition, in series [1], the Emax was 76 ± 2%.
With `CS(=O)(=O)Nc1ccc(-c2nc(NCC(c3ccccc3)c3ccccc3)c3ccccc3n2)cn1` [compound 138, N-(5-(4-((2,2-Diphenylethyl)Amino)Quinazolin-2-yl)Pyridin-2-yl)Methanesulfonamide], the melting point was found to be 210 °C. Further, the IC50 in series [1] (setting [2]) came out at 26 ± 3 nM. The Emax in series [1] came to 63 ± 1%.
The like results for `CS(=O)(=O)Nc1ncc(-c2nc(NCC(c3ccccc3)c3ccccc3)c3ccccc3n2)cn1` [compound 139, N-(5-(4-((2,2-Diphenylethyl)Amino)Quinazolin-2-yl)Pyrimidin-2-yl)Methanesulfonamide] were, in that order, 214 °C, 205 ± 32 nM and 67 ± 2%.
Compound `c1ccc(C(CNc2nc(-c3cccc4cccnc34)nc3ccccc23)c2ccccc2)cc1` [compound 141, N-(2,2-Diphenylethyl)-2-(Quinolin-8-yl)Quinazolin-4-Amine] displayed a melting point of 102 to 104 °C. In series [1] (setting [2]), this compound gave an IC50 of 45 ± 7 nM. Besides, the Emax in series [1] amounted to 98 ± 3%.
The like results for `c1ccc(CC(CNc2nc(-c3cnc4nccn4c3)nc3ccccc23)c2ccccc2)cc1` (stereo not drawn) [compound 142, N-(2,3-Diphenylpropyl)-2-(Imidazo[1,2-A]Pyrimidin-6-yl)Quinazolin-4-Amine] were, in that order, 189 to 191 °C, 15 ± 3 nM and 73 ± 2%.
The like results for `c1ccc(C2CN(c3nc(-c4cnc5nccn5c4)nc4ccccc34)Cc3ccccc32)cc1` (stereo not drawn) [compound 143, 2-(Imidazo[1,2-A]Pyrimidin-6-yl)-4-(4-Phenyl-3,4-Dihydroisoquinolin-2(1H)-yl)Quinazoline] were, in that order, 104 to 106 °C, 502 ± 84 nM and 73 ± 3%.
The compound `O=C(Nc1nc(-c2ccc3nccn3c2)nc2ccccc12)C(c1ccccc1)c1ccccc1` [compound 144, N-(2-(Imidazo[1,2-A]Pyridin-6-yl)Quinazolin-4-yl)-2,2-Diphenylacetamide] returned a melting point of 218 to 220 °C. The same compound yielded an IC50 in series [1] (setting [2]) of 160 ± 28 nM. Moreover, in series [1], the Emax worked out at 61 ± 2%.
The like results for `c1ccc(C(CNc2nc(-c3ccc4scnc4c3)nc3ccccc23)c2ccccc2)cc1` [compound 145, 2-(Benzo[D]Thiazol-5-yl)-N-(2,2-Diphenylethyl)Quinazolin-4-amine] were, in that order, 224 to 226 °C, 533 ± 89 nM and 67 ± 2%.
`CC(C)(C)OC(=O)N[C@H](CNc1nc(-c2ccc3nccn3c2)nc2ccccc12)c1ccccc1` [compound 146, (S)-Tert-Butyl (2-((2-(Imidazo[1,2-A]Pyridin-6-yl)Quinazolin-4-yl)Amino)-1-Phenylethyl)Carbamate] yielded a melting point of 252 to 254 °C. The compound further showed an IC50 in series [1] (setting [2]) of 414 ± 44 nM. For the same compound, the Emax in series [1] was determined as 65 ± 1%.
`c1ccc(C(c2ccccc2)N2CC(Nc3nc(-c4ccc5nccn5c4)nc4ccccc34)C2)cc1` [compound 148, N-(1-Benzhydrylazetidin-3-yl)-2-(Imidazo[1,2-A]Pyridin-6-yl)Quinazolin-4-Amine]: the melting point lay within 67 to 69 °C. Besides, 91 ± 21 nM corresponded to half-maximal inhibition in series [1] (setting [2]) (IC50). Further, the Emax in series [1] was 81 ± 3%.
Regarding `CC(=O)N[C@H](CNc1nc(-c2ccc3nccn3c2)nc2ccccc12)c1ccccc1` [compound 149, (S)—N-(2-((2-(Imidazo[1,2-A]Pyridin-6-yl)Quinazolin-4-yl)Amino)-1-Phenylethyl)Acetamide], the melting point was 99 to 101 °C. In series [1] (setting [2]), this compound displayed an IC50 of 3720 ± 608 nM. Moreover, the maximal response (Emax) in series [1] came to 80 ± 4%.
In turn, `COc1ccc(C(CNc2nc(-c3ccc4nccn4c3)nc3ccccc23)C2(O)CCCCC2)cc1` (stereo not drawn) [compound 153, 1-(2-((2-(Imidazo[1,2-A]Pyridin-6-yl)Quinazolin-4-yl)Amino)-1-(4-Methoxyphenyl)ethyl)Cyclohexanol] displayed a melting point of 247 to 249 °C. Also, the IC50 in series [1] (setting [2]) was determined as 41 ± 8 nM. Moreover, the Emax in series [1] amounted to 70 ± 2%.
